Data published in PubChem BioAssay (NCI).
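Growth conditions: 96-well plates. Treatment: test compound, 48 hours, 5 concentrations. Analysis: linear interpolation between bracketing concentrations; unreached endpoints set to highest concentration. Here, GI50 denotes the concentration required for 50% inhibition of growth. TGI denotes the concentration required for complete inhibition of growth.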

What was measured:
Experiment in all cases: DTP human tumour cell line panel, 48 h
[1] = system: 786-0 renal
[2] = system: A498 renal
[3] = system: A549 NSCLC
[4] = system: ACHN renal
[5] = system: BT-549 breast
[6] = system: CAKI-1 renal
[7] = system: CCRF-CEM leukemia
[8] = system: COLO 205 colon
[9] = system: DU-145 prostate
[10] = system: EKVX NSCLC
[11] = system: HCC-2998 colon
[12] = system: HL-60(TB) leukemia
[13] = system: HOP-62 NSCLC
[14] = system: HOP-92 NSCLC
[15] = system: HS 578T breast
[16] = system: HT29 colon
[17] = system: IGROV1 ovarian
[18] = system: K-562 leukemia
[19] = system: KM12 colon
[20] = system: LOX IMVI melanoma
[21] = system: M14 melanoma
[22] = system: MALME-3M melanoma
[23] = system: MDA-MB-231 breast
[24] = system: MDA-MB-435
[25] = system: MOLT-4 leukemia
[26] = system: NCI-H226 lung
[27] = system: NCI-H23 lung
[28] = system: NCI-H460 lung
[29] = system: NCI-H522 lung
[30] = system: NCI/ADR-RES ovarian
[31] = system: OVCAR-4 ovarian
[32] = system: OVCAR-5 ovarian
[33] = system: OVCAR-8 ovarian
[34] = system: PC-3 prostate
[35] = system: RPMI-8226 leukemia
[36] = system: RXF 393 renal
[37] = system: SF-268 CNS
[38] = system: SF-295 CNS
[39] = system: SF-539 CNS
[40] = system: SK-MEL-2 melanoma
[41] = system: SK-MEL-28 melanoma
[42] = system: SK-MEL-5 melanoma
[43] = system: SK-OV-3 ovarian
[44] = system: SN12C renal
[45] = system: SNB-19 CNS
[46] = system: SNB-75 CNS
[47] = system: SR leukemia
[48] = system: SW-620 colon
[49] = system: TK-10 renal
[50] = system: U251 CNS
[51] = system: UACC-257 melanoma
[52] = system: UACC-62 melanoma
[53] = system: UO-31 renal

CCN(CC)c1ccc2c(c1)Oc1nc(N)c(C#N)c(N)c1C2Sc1ccc(C)cc1 (stereo unspecified)
GI50 [1]: 1880 nM
TGI [1]: 3450 nM
GI50 [2]: 1890 nM
TGI [2]: 3300 nM
GI50 [3]: 1930 nM
TGI [3]: 3840 nM
GI50 [4]: 1580 nM
TGI [4]: 2930 nM
GI50 [5]: 1160 nM
TGI [5]: 2500 nM
GI50 [6]: 1460 nM
TGI [6]: 2780 nM
GI50 [7]: 366 nM
TGI [7]: 2110 nM
GI50 [8]: 1810 nM
TGI [8]: 3490 nM
GI50 [9]: 1800 nM
TGI [9]: 3210 nM
GI50 [10]: 605 nM
TGI [10]: 2050 nM
GI50 [11]: 1780 nM
TGI [11]: 3320 nM
GI50 [12]: 564 nM
TGI [12]: 3140 nM
GI50 [13]: 1760 nM
TGI [13]: 3290 nM
GI50 [14]: 1310 nM
TGI [14]: 2600 nM
GI50 [15]: 1590 nM
TGI [15]: 4570 nM
GI50 [16]: 1840 nM
TGI [16]: 3410 nM
GI50 [17]: 1090 nM
TGI [17]: 2360 nM
GI50 [18]: 2300 nM
TGI [18]: > 100000 nM
GI50 [19]: 1050 nM
TGI [19]: 2280 nM
GI50 [20]: 320 nM
TGI [20]: 1060 nM
GI50 [21]: 1570 nM
TGI [21]: 3220 nM
GI50 [22]: 1680 nM
TGI [22]: 3060 nM
GI50 [23]: 1450 nM
TGI [23]: 2810 nM
GI50 [24]: 1250 nM
TGI [24]: 2540 nM
GI50 [25]: 824 nM
TGI [25]: 4300 nM
GI50 [26]: 2010 nM
TGI [26]: 4620 nM
GI50 [27]: 1260 nM
TGI [27]: 2640 nM
GI50 [28]: 1390 nM
TGI [28]: 3020 nM
GI50 [29]: 1750 nM
TGI [29]: 3170 nM
GI50 [30]: 2190 nM
TGI [30]: 5040 nM
GI50 [31]: 1750 nM
TGI [31]: 3180 nM
GI50 [32]: 1710 nM
TGI [32]: 3120 nM
GI50 [33]: 1510 nM
TGI [33]: 3080 nM
GI50 [34]: 1260 nM
TGI [34]: 2600 nM
GI50 [35]: 1900 nM
TGI [35]: 5610 nM
GI50 [36]: 1770 nM
TGI [36]: 3220 nM
GI50 [37]: 1670 nM
TGI [37]: 3250 nM
GI50 [38]: 1750 nM
TGI [38]: 3190 nM
GI50 [39]: 1600 nM
TGI [39]: 2960 nM
GI50 [40]: 1720 nM
TGI [40]: 3120 nM
GI50 [41]: 1700 nM
TGI [41]: 3090 nM
GI50 [42]: 1760 nM
TGI [42]: 3150 nM
GI50 [43]: 1940 nM
TGI [43]: 3470 nM
GI50 [44]: 1680 nM
TGI [44]: 3150 nM
GI50 [45]: 1360 nM
TGI [45]: 2670 nM
GI50 [46]: 1340 nM
TGI [46]: 2630 nM
GI50 [47]: 261 nM
TGI [47]: 834 nM
GI50 [48]: 1500 nM
TGI [48]: 3210 nM
GI50 [49]: 2960 nM
TGI [49]: 4480 nM
GI50 [50]: 1200 nM
TGI [50]: 2740 nM
GI50 [51]: 1850 nM
TGI [51]: 3390 nM
GI50 [52]: 1670 nM
TGI [52]: 3070 nM
GI50 [53]: 1350 nM
TGI [53]: 2630 nM
